Here are results for 21 compounds from US7763624B2, “Substituted pyrazolo[3,4-d]pyrimidines as ACK-1 and LCK inhibitors” (Amgen Inc., priority 2005, dated 2010).

As usually defined, the Ki is a dissociation constant, usually derived from enzyme kinetics or from competition with a known ligand. A low value points to a stronger hold on the target. The term IC50 denotes the midpoint of a concentration-inhibition curve.

Assay [1] addresses T1, ACK1 (Homo sapiens, UniProt Q07912).
T1 construct: a fusion of an N-terminal (His)6 Tag with amino acids 117 to 489 of ACK1; (His)6 (N); made in house; host or cells: baculovirus infected Hi-5 insect cells
Put plainly: ACK1 Enzymatic Assay (PGT/autophosphorylation ELISA). The class given is biochemical. On the procedure: IC50 values of compounds of the invention may be assessed as follows. The ACK1 kinase assay utilizes a protein expressed in baculovirus infected Hi-5 cells (a fusion of an N-terminal (His)6 Tag with amino acids 117 to 489 of ACK1) purified by affinity chromatography on a Ni-NTA column. The substrate for the reaction is ACK1 itself (autophosphorylation) and poly-Glutamic acid-Tyrosine (PGT (4:1), Sigma catalog #PO275). The PGT is coated to Nunc 96 well plates at 80 μg/mL overnight at 4° C. The morning after coating, the plates are washed twice, and […] reaction buffer (10 mM Hepes, pH 7.6; 20 mM MgCl2; 75 mM NaCl, 0.125% TWEEN20 (polyoxyethylene sorbitan monolaurate); 1 mM DTT) with 5 μM ATP are added to each well. Test compounds are added in […] DMSO, and the reaction is started by addition of […] kinase in assay buffer. The reaction proceeds for 2 h at room temperature. Next, the plates are washed four times, and the level of tyrosine phosphorylation in a given well is quantified by standard ELISA assay utilizing a phosphotyrosine antibody (PY20, Pierce).
For orientation: An ELISA detects its analyte on a solid surface through an enzyme-linked reagent.

The target in assay [2] is T2, LCK (Homo sapiens, UniProt P06239).
T2 construct: 15 μL of LCK KD GST (225-509) for a final volume of 40 μL; GST
T2 sequence (P06239 225-509): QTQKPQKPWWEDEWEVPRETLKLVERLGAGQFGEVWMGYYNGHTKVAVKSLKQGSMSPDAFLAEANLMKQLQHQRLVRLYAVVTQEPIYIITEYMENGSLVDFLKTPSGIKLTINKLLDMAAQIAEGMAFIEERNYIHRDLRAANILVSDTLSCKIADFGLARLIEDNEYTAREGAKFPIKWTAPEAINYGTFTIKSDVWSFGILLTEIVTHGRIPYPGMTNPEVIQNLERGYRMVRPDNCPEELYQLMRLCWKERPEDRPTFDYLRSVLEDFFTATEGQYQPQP
Put plainly: LCK-Homogeneous Time Resolved Fluorescent (HTRF) Kinase Assay. The class given is biochemical. The protocol:
LCK-Homogeneous Time Resolved Fluorescent (HTRF) Kinase Assay
The LCK HTRF assay begins with LCK in the presence of ATP phosphorylating the biotinylated peptide Gastrin. The reaction incubates for 90 min. To quench the assay detection reagents are added which both stop the reaction by diluting out the enzyme and chelating the metals due to the presence of EDTA. Once the detection reagents are added the assay incubates for 30 min to allow for equilibration of the detection reagents.
Buffer conditions are as follows: 50 mM HEPES pH 7.5, 50 mM NaCl, 20 mM MgCl2, 5 mM MnCl2, 2 mM DTT, 0.05% BSA.
The assay is quenched and stopped with 160 μL of a detection reagent. Detection reagents are as follows: Buffer made of 50 mM Tris, pH 7.5, 100 mM NaCl, 3 mM EDTA, 0.05% BSA, 0.1% Tween20.
The assay plate is read in either a Discovery or a RubyStar.

Assay [3] concerns C8 cells. Put plainly: ACK1 Cell Based Assay (survival under low serum, Cytotox One). The following applies: read-out: ACK1 Cell-based IC50. On the procedure:
ACK1 Cell Based Assay The ACK1 cell based assay is designed to find inhibitors of ACK1 kinase activity which would be prime candidates for the development of anticancer drugs. […] After 20 to 24 h incubation at 37° C. and 5% CO2, cell viability is determined using the Cytotox One kit (Promega) according to the manufacturer's instructions.

Where [4] appears, read: ACK1-dependent C8 cells, 0.125% FCS, 20 to 24 h.

Like-named read-outs stand apart in the source and are kept apart here.

T1 sequence (Q07912 117-489): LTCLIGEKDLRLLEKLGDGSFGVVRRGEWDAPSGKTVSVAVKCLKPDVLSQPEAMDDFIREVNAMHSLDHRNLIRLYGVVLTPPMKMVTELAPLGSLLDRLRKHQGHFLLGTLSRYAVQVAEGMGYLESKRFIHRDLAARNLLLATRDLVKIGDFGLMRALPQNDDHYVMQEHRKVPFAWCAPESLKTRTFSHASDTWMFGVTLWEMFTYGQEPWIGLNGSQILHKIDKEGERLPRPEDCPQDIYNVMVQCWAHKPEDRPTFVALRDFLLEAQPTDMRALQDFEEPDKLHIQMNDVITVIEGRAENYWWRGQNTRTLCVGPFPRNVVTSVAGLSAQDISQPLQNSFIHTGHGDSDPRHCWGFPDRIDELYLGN

Regarding `Cc1cccc(C)c1Nc1nn(CCN2CCOCC2)c2nc(Nc3ccccc3)ncc12` [Compound 51, N^3-(2,6-Dimethyl-phenyl)-1-(2-morpholin-4-yl-ethyl)-N^6-phenyl-1H-pyrazolo[3,4-d]pyrimidine-3,6-diamine], the Ki in assay [1] was 0.01 to 0.1 µM; in assay [2], less than 0.01 µM. For the same compound, in assay [3], the IC50 was greater than 0.1 µM.

For the compound `COCCOc1ccc(Nc2ncc3c(Nc4c(C)cccc4C)nn(CCN4CCOCC4)c3n2)cc1` [Compound 52, N^3-(2,6-Dimethyl-phenyl)-N^6-[4-(2-methoxy-ethoxy)-phenyl]-1-(2-morpholin-4-yl-ethyl)-1H-pyrazolo[3,4-d]pyrimidine-3,6-diamine], the results for the Ki in assay [1] and in assay [2] were 0.01 to 0.1 µM and less than 0.01 µM, respectively. Further, in assay [3] (setting [4]), the half-inhibitory concentration (IC50) is greater than 0.1 µM.

Regarding `Cc1cccc(C)c1Nc1nn(CCN2CCOCC2)c2nc(Nc3ccc(N4CCN(C)CC4)cc3)ncc12` [Compound 53, N^3-(2,6-dimethyl-phenyl)-N^6-[4-(4-methyl-piperazin-1-yl)-phenyl]-1-(2-morpholin-4-yl-ethyl)-1H-pyrazolo[3,4-d]pyrimidine-3,6-diamine], the Ki in assay [1] was 0.01 to 0.1 µM; in assay [2], less than 0.01 µM. Moreover, in assay [3] (setting [4]), the IC50 was greater than 0.1 µM.

With `COCCOc1ccc(Nc2ncc3c(Nc4c(C)cccc4C)nn(CCC(C)(C)OC)c3n2)cc1` [Compound 54, N^3-(2,6-Dimethyl-phenyl)-N-6-[4-(2-methoxy-ethoxy)-phenyl]-1-(3-methoxy-3-methyl-butyl)-1H-pyrazolo[3,4-d]pyrimidine-3,6-diamine], the Ki in assay [1] is 0.01 to 0.1 µM; in assay [2], less than 0.01 µM. Moreover, the IC50 in assay [3] (setting [4]) is greater than 0.1 µM.

Regarding `COC(C)(C)CCn1nc(Nc2c(C)cccc2C)c2cnc(Nc3ccc(N4CCN(C)CC4)cc3)nc21` [Compound 55, N^3-(2,6-Dimethyl-phenyl)-1-(3-methoxy-3-methyl-butyl)-N-6-[4-(methylpiperazin-1-yl)phenyl]-1H-pyrazolo[3,4-d]pyrimidine-3,6-diamine], the Ki in assay [1] and in assay [2] was less than 0.01 µM throughout. Also, the IC50 in assay [3] (setting [4]) was in the range of 0.01 to 0.1 µM.

As for `COC(C)(C)CCn1nc(Nc2c(C)cccc2C)c2cnc(Nc3ccc(OCCCN4CCCCC4)c(F)c3)nc21` [Compound 57], the Ki in assay [1] and in assay [2] was 0.01 to 0.1 µM in each case. Also, in assay [3] (setting [4]), the IC50 is 0.01 to 0.1 µM.

`COC(C)(C)CCn1nc(Nc2c(C)cccc2C)c2ccc(Nc3ccccc3)cc21` [Compound 59]: the Ki in assay [1] and in assay [2] was less than 0.01 µM throughout. For the same compound, the IC50 in assay [3] (setting [4]) lay within 0.01 to 0.1 µM.

As to `COC(C)(C)CCn1nc(Nc2c(C)cccc2C)c2ccc(Nc3ccc(N4CC(C)NC(C)C4)cc3)cc21` (stereo not drawn) [Compound 60, N^3-(2,6-Dimethylphenyl)-1-N^6-(4-(3,5-dimethylpiperazin-1-yl)phenyl)-1-(3-methoxy-3-methylbutyl)-1H-indazole-3,6-diamine], the Ki in assay [1] and in assay [2] was less than 0.01 µM each time. For the same compound, the IC50 in assay [3] (setting [4]) lay in the range of 0.01 to 0.1 µM.

Regarding `Cc1cccc(C)c1Nc1nn(CC2CCOCC2)c2nc(Nc3ccc(N4CCNCC4)cc3)ncc12` [Compound 61], the Ki in assay [1] and in assay [2] was less than 0.01 µM throughout. The IC50 in assay [3] (setting [4]) was less than 0.01 µM.

For the compound `Cc1cccc(C)c1Nc1nn(CC2CCOCC2)c2nc(Nc3ccc(OCCCN4CCCCC4)c(F)c3)ncc12` [Compound 62], the Ki in assay [1] and in assay [2] was less than 0.01 µM throughout. Moreover, in assay [3] (setting [4]), the 50% inhibitory concentration (IC50) lay within 0.01 to 0.1 µM.

Regarding `COC[C@H]1CCCN1CCCn1nc(Nc2c(C)cccc2C)c2ccc(Nc3ccc(N4CCNCC4)cc3)cc21` [Compound 67, (R)—N^3-(2,6-Dimethylphenyl)-1-(3-(2-(methoxymethyl)pyrrolidin-1-yl)propyl)-N^6-(4-piperazin-1-yl)phenyl-1H-indazole-3,6-diamine], the Ki in assay [1] and in assay [2] was less than 0.01 µM each time. The IC50 in assay [3] (setting [4]) was 0.01 to 0.1 µM.

Consider `COC(C)(C)CCn1nc(Nc2ccccc2)c2cnc(Nc3ccccc3)nc21` [Compound 74, 1-(3-Methoxy-3-methyl-butyl)-N^3, N^6-diphenyl-1H-pyrazolo[3,4-d]pyrimidine-3,6-diamine], for which the Ki in assay [1] and in assay [2] was greater than 0.1 µM in each case. Further, the IC50 in assay [3] is greater than 0.1 µM.

Consider `COC(C)(C)CCn1nc(Nc2ccccc2)c2cnc(Nc3ccc(N4CCN(C)CC4)cc3)nc21` [Compound 75], for which the Ki in assay [1] is greater than 0.1 µM; in assay [2], 0.01 to 0.1 µM. Also, the IC50 in assay [3] is greater than 0.1 µM.

`COC(C)(C)CCn1nc(Nc2c(C)cc(C)cc2C)c2cnc(Nc3ccccc3)nc21` [Compound 76, 1-(3-Methoxy-3-methyl-butyl)-N^6-phenyl-N^3-(2,4,6-trimethyl-phenyl)-1H-pyrazolo[3,4-d]pyrimidine-3,6-diamine]: the values for the Ki in assay [1] and in assay [2] were greater than 0.1 µM and less than 0.01 µM, respectively. For the same compound, the IC50 in assay [3] is greater than 0.1 µM.

Consider `COC(C)(C)CCn1nc(Nc2c(C)cc(C)cc2C)c2cnc(Nc3ccc(N4CCN(C)CC4)cc3)nc21` [Compound 77], for which the Ki was 0.01 to 0.1 µM in assay [1] and less than 0.01 µM in assay [2]. For the same compound, the IC50 in assay [3] was 0.01 to 0.1 µM.

Turning to `COC(C)(C)CCn1nc(Nc2c(C)cc(F)cc2C)c2cnc(Nc3ccccc3)nc21` [Compound 78, N^3-(4-Fluoro-2,6-dimethyl-phenyl)-1-(3-methoxy-3-methyl-butyl)-N^6-phenyl-1H-pyrazolo[3,4-d]pyrimidine-3,6-diamine], the Ki in assay [1] is 0.01 to 0.1 µM; in assay [2] it was less than 0.01 µM. Further, the IC50 in assay [3] was greater than 0.1 µM.

For `COC(C)(C)CCn1nc(Nc2c(C)cc(F)cc2C)c2cnc(Nc3ccc(N4CCN(C)CC4)cc3)nc21` [Compound 79, N^3-(4-Fluoro-2,6-dimethyl-phenyl)-1-(3-methoxy-3-methyl-butyl)-N^6-[4-(4-methyl-piperazin-1-yl)-phenyl]-1H-pyrazolo[3,4-d]pyrimidine-3,6-diamine], the Ki in assay [1] was 0.01 to 0.1 µM; in assay [2] it was less than 0.01 µM. Besides, the IC50 in assay [3] (setting [4]) is 0.01 to 0.1 µM.

With `COC(C)(C)CCn1nc(Nc2c(Cl)cccc2Cl)c2ccc(Nc3ccc(N4CCN(C(=O)OCC5c6ccccc6-c6ccccc65)CC4)cc3)cc21` [Compound 81, (9H-Fluoren-9-yl)methyl 4-(4-(3-(2,6-dichlorophenylamino)-1-(3-methoxy-3-methyl-butyl)-1H-indazol-6-ylamino)phenyl)piperazine-1-carboxylate], the figures for the Ki in assay [1] and in assay [2] were 0.01 to 0.1 µM and less than 0.01 µM, respectively. Besides, the IC50 in assay [3] was greater than 0.1 µM.

`COC(C)(C)CCn1nc(Nc2c(Cl)cccc2Cl)c2cnc(Nc3ccc(OCCN4CCCC4)c(F)c3)nc21` [Compound 82, N^3-(2,6-Dichlorophenyl)-N^6-(3-fluoro-4-(2-(pyrrolidin-1-yl)ethoxy)phenyl)-1-(3-methoxy-3-methylbutyl)-1H-pyrazolo[3,4-d]pyrimidine-3,6-diamine]: the Ki in assay [1] and in assay [2] was less than 0.01 µM in each case. In addition, the IC50 in assay [3] lay within 0.01 to 0.1 µM.

Take `COC(C)(C)CCn1nc(Nc2c(Cl)cccc2Cl)c2ccc(Nc3ccc(N4CCNCC4)cc3)cc21` [Compound 84]: the Ki in assay [1] is 0.01 to 0.1 µM; in assay [2] it was less than 0.01 µM. Also, the concentration for half-maximal inhibition (IC50) in assay [3] (setting [4]) was 0.01 to 0.1 µM.

As for `C=CCCn1nc(Nc2c(Cl)cccc2Cl)c2cnc(Nc3ccccc3)nc21` [Compound 87, 1-(But-3-enyl)-N^3-(2,6-dichlorophenyl)-N^6-phenyl-1H-pyrazolo[3,4-d]pyrimidine-3,6-diamine], the Ki in assay [1] is 0.01 to 0.1 µM; in assay [2] it was less than 0.01 µM. For the same compound, in assay [3] (setting [4]), the IC50 was greater than 0.1 µM.
